Patent US20130345231A1, “ANTICANCER THERAPEUTIC AGENTS” (INDIANA UNIVERSITY RESEARCH AND TECHNOLOGY CORPORATION, priority 2011, published 2013)

How the values were obtained:
Assay type in all cases: cell-based
Panc-1 and Paca2 cells = assay: MTT relative cytotoxicity toward pancreatic cancer lines (statements on both lines together); details: 72 hours; for cytotoxicity toward pancreatic cancer lines: 12.5, 25 and 50 μM
Procedure: (§1) FIG. 7: Relative cytotoxicity of the AOH compounds docking with caPCNA toward cultured Panc-1 (A) and Paca2 (B) cells. Relative cytotoxicity was determined by a colorimetric assay (MTT) measuring cell viability following a 72 hour incubation with the compounds indicated. Cells were exposed to DMSO/saline (series 1) and 12.5 (series 2) 25 (series 3) and 50 (series 4) μM of the indicated drug dissolved in DMSO for 72 hours prior to performing the MTT assay.

MCF-7 cells = details: for selectivity of toxicity, breast cancer versus non-malignant breast cells: at concentrations lower than 100 μM (10 μM), MCF7 vs MCF-10A
Procedure: The effect that a set of in silico selected compounds had on the viability of exponentially growing cultured malignant (MCF-7) and non-malignant (MCF-10A) breast cells was determined. Exponentially growing malignant (MCF-7) and non-malignant (MCF-10A) breast cells were incubated for 72 hours with 100 μM of the indicated compounds in growth media, before cell viability was determined colorimetrically using the MTT assay. […] Relative viability was determined by comparison to the viability of the cell cultures incubated in the presence of PBS/DMSO (vehicle) control instead of compound. […] Also were identified compounds that killed: both cell types with nearly equal preference; compounds that had little or no cytotoxic effect on either cell type, and compounds that preferentially killed the non-malignant breast cells.
The short- and long-term cytotoxic effects of each of the AOH compounds was determined essentially as described below for the caPeptide and related peptides, except that the initial cell based screening was determined by incubating cells for 72 hours with 100 μM of each compound. Compounds were classified into specific categories: 1) compounds that preferentially kill breast cancer but not non-malignant breast cells; 2) compounds that appear to kill both malignant and non-malignant breast cells without preference; 3) compounds that appear to have little or no toxicity toward either type of breast cell; and 4) compounds that appear to preferentially kill non-malignant breast cells. For those compounds falling into the first category, the short-term MTT viability assay was repeated using 10 μM of the selected AOH compound.
The MTT ((3-(4,5-Dimethylthiazol-2-yl)-2,5-diphenyltetrazolium bromide) assay was performed to determine the viability of cells exposed for various lengths of time to various peptide constructs containing or related to caPeptide. This assay determines the short-term affect each of the peptides has on cell viability. caPeptide's sequence is LGIPEQEY. The MTT assay was used to monitor the cytotoxic effect various caPeptides had on the viability of human MCF-7, MDA-MB436, HCC1937^(BRCA−) and HCC1937^(BRCA+) breast cancer cells. HCC1937^(BRCA−) cells harbor a hereditary mutation in the BRCA1 gene, that results in a non-functional gene product. These cells, are the parental wild-type to the HCC1937^+ cells, which express a fully functional BRCA1 human transgene. The assay was performed by seeding equal numbers of cells (5×10^3) into each of the wells of 96-well tissue culture plates for an overnight incubation to allow the cells to attach to the plates. In the morning, the cells in each of 3 individual wells were exposed to each of the various peptide constructs at the various concentrations indicated in the figures, for periods of 24, 48 and 72 hours. The MTT assay was then performed on the cells in each of the wells to determine the relative degree to which specific peptides were cytotoxic to each of these breast cancer cell lines. Percent viability at the end of the assay we determined colorimetrically by measuring the absorbance at 405 nm of the assay products formed in each well, averaging them, and then comparing the average absorbance of these assay products formed at each individual time period for each specific concentration of a specific peptide examined to the average absorbance of the 3 wells used to determine the viability of untreated cells exposed to PBS in place of peptide. These wells containing the PBS treated cells were assigned a relative viability of 100%, based upon the average absorbance of the reaction product formed in these wells, and the viability of the cells exposed to the various peptides under specific assay conditions was determined as a percentage of the absorbance produced by these PBS treated cells.

Panc-1 cells = system: Panc-1 cells
Procedure: as §1
(§2) FIG. 8: 50 μM AOH-18, AOH-20, and AOH-39 were individually incubated with exponentially growing Panc-1 or Paca-2 cells for 72 hours, after which cell viability was determined colorimetrically using MTT.

Paca-2 cells = assay: MTT cell viability assay, Paca-2 cells, 72 hours
Procedure: as §1, §2

Row | SMILES | cytotoxicity toward pancreatic cancer lines (Panc-1 and Paca2 cells) | CC50 (MCF-7 cells) | further results
1 | CCNC(C)c1nc2ccccc2c(=O)n1Cc1ccccc1 (stereo not shown) [AOH-1] | concentration dependent cytotoxicity | – | –
2 | Cc1ccc(-n2c(C(C)N3CCNC(C)C3)nc3ccccc3c2=O)cc1 (stereo not shown) [AOH-16] | concentration dependent cytotoxicity | – | –
3 | CCn1c2ccccc2c2cc(CNCc3ccccc3)ccc21 [AOH-18] | – | – | relative sensitivity of MCF-7 cells among compounds (MCF-7 cells; 72 hours, MTT, rank by LC50): most sensitive; selectivity of toxicity, breast cancer versus non-malignant breast cells (MCF-7 cells): selectively toxic; LC50 (Panc-1 cells): not achieved over the concentration range tested; LC50 (Paca-2 cells): not achieved over the concentration range tested; loss in viability of both pancreatic cell lines (Panc-1 and Paca2 cells; at the MCF-7 LC50 concentration (~3 μM)): little or no loss in viability
4 | CC(C)(C)c1ccc(CNC2CCN(Cc3ccccc3)CC2)cc1 [AOH-20] | – | 3 to 40 µM | selectivity of toxicity, breast cancer versus non-malignant breast cells (MCF-7 cells): selectively toxic; LC50 (Panc-1 cells): not achieved over the concentration range tested; LC50 (Paca-2 cells): not achieved over the concentration range tested
5 | CCCCNC(=O)c1cc2occc2n1Cc1cc(C)ccc1C [AOH-34] | concentration dependent cytotoxicity | – | –
6 | CCCCNC(=O)c1cc2oc(C)cc2n1Cc1cc(C)ccc1C [AOH-36] | – | 3 to 40 µM | –
7 | Cc1nc(C)c(Cc2ccccc2F)c(N2CCN(CC(O)C(C)C)CC2)n1 (stereo not shown) [AOH-52] | concentration dependent cytotoxicity | – | –
8 | CCN(C(=O)Nc1cccc(C(F)(F)F)c1)C(C)c1nc2ccccc2c(=O)n1-c1ccc(F)cc1 (stereo not shown) [AOH-59] | concentration dependent cytotoxicity | 3 to 40 µM | –
